pIC50: −log10 of the molar value.

This assay has as its target TENT4B (PAPD5) (Homo sapiens, UniProt Q8NDF8). Briefly: ATP depletion polyadenylation assay. The class given is biochemical.

TENT4B (PAPD5), sequence (Q8NDF8 whole entry): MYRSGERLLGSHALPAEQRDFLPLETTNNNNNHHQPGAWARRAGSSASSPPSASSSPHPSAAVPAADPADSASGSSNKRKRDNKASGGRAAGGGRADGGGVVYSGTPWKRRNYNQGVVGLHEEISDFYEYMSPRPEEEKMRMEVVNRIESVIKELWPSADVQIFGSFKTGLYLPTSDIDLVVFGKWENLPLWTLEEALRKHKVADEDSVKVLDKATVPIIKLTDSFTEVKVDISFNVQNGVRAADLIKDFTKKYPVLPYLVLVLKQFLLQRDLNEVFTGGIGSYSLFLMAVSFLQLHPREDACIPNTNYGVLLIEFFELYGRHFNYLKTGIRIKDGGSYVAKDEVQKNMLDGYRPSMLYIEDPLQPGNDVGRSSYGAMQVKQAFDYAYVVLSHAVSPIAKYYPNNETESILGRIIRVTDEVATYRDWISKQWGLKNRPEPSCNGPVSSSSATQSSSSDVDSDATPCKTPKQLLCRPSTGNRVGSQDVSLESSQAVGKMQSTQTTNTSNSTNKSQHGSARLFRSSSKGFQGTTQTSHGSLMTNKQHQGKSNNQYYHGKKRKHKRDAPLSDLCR

As usually defined, the pIC50 is the negative decadic logarithm of the IC50, by convention in mol/L. The low end stands for a large IC50, the high end for a small IC50. Compound `COCCCOc1cc2c(cc1OC)-c1cc(=O)c(C(=O)O)cn1[C@@H](C(C)C)C2` [RO0321] gave a negative logarithm of the IC50 (pIC50) of 7.12.

Regarding `COCCCOc1cc2c(cc1OC)-c1cc(=O)c(C(=O)O)cn1[C@H](C(C)C)C2` [RG7834], the negative logarithm of the IC50 (pIC50) is 8.89.

The record behind these values is publication doi:10.1101/718940v1 (biorxiv, 2019).
